Reference: article PMC6226472, “Cardol triene inhibits dengue infectivity by targeting kl loops and preventing envelope fusion” (Scientific Reports, 2018)
Where two headings read alike, the source gives them in different places.

Assays:
DENV2 NGC = test: Efficacy study (EC50) in DENV2 infected Vero cells, plaque titration; type: cell-based, Dengue virus; settings: for EC50: DENV2 NGC (M.O.I. of 0.1) infected Vero cells, plaque titration, 3 days; for TI (therapeutic index, CC50/EC50): Vero CC50 / DENV2 EC50
Protocol: Next, we studied the efficacies (EC50) of the phenolic lipid homologues against DENV2 infectivity in Vero cells. Briefly, compounds at 10 different concentrations were added to DENV2-infected Vero cells (M.O.I. of 0.1) during and post infection and the viral inhibition was determined by plaque titration. […] Noted that anacardic acids were major components of CNSL extracts and all homologues were purified directly from CNSL itself.
Next, each homologue was analyzed for effective concentration (EC50). Vero (5 × 10^4) cells were seeded, and infected with DENV2 (M.O.I. of 0.1) as previously described. Phenolic lipid mixtures and homologues were serially diluted in DMSO to the final concentrations as follows; 0, 0.5, 1, 1.5, 2, 2.5, 5, 7.5, 10, 25, and 50 µM. DMSO at the concentration of 1% was used as a mock treatment referring to 100% infection. Infected cells were treated with the designated compounds during and post infection. Supernatants were collected at 3 days after infection for analysis of virion production by plaque titration. Non-linear regression analysis was used to determine the effective concentrations. […] The therapeutic index (TI) was a ration of CC50/EC50 of the compound.

[1] = Cytotoxic concentration (CC50), MTS; type: cell-based; settings: African green monkey, Vero cells
Protocol: Cytotoxic concentrations (CC50) were also studied using Vero cells. Briefly, the 10^4 cells were seeded into each well of 96-well plates. After an overnight incubation, phenolic lipids were serially diluted in DMSO to the final concentrations as follows; 25, 50, 100, 200, 300, 400, and 500 µM. Each concentration was performed in quadruplicates. DMSO at 1% was used as a mock treatment referring to 100% cell viability. Cells were incubated for 48 h before cell viability was accessed using CellTiler 96® Aqueous One Solution Cell Proliferation Assay kit (Promega, Wisconsin, USA). Non-linear regression analysis was used to determine cytotoxic concentrations (CC50) of each experiment.

hepatitis C virus (HCV) = test system: hepatitis C virus (HCV); parameters: method as in PMID 25658101; settings: cited from earlier work
K562 = test system: K562; parameters: method as in PMID 25726174; settings: cited from earlier work
AGS = test system: AGS; parameters: method as in PMID 25726174; settings: cited from earlier work
Solubility in DMSO = type: physicochemical
[2] = test system: BHK-21/DENV2 replicon cells; test: Replicon inhibition study, RT-qPCR of DENV2 NS1; type: cell-based, Dengue virus; settings: 72 h
Protocol: We analyzed the replication inhibition using BHK-21/DENV2 replicon cells stably expressed the non-structural proteins. Cardol triene at 10 µM and 20 µM were added to the replicon cells for 72 h and the replication inhibition was accessed by RT-qPCR of DENV2 NS1. Ribavirin, a known inhibitor of flaviviral replication, was used as a positive inhibition control. […] Replicon cell viability under cardol triene treatment was also analyzed using an MTS assay. […] Therefore, we concluded that cardol triene inhibited DENV RNA replicon replication, potentially in dose-dependent manner.
BHK-21 (5 × 10^4) cells expressing DENV-2 replicon (BHK-21/DENV2)[44] were seeded as previously described. Cardol triene at 10 µM and 20 µM, DMSO, and ribavirin (TargetMol, USA) were added to the replicon cells and incubated at 37 °C for 3 days. Cells lysates were collected and viral RNA was quantified by RT-qPCR as previously described. Data were reported as percent inhibition compared with ribavirin. Three biological replicates were performed and results were means and SEM of all replicates.

[3] = Dengue virus, 72 h, read-out: EC50

| SMILES | CC50 at 48 h [1] [µM] | EC50 (DENV2 NGC; [3]) [µM] | TI (therapeutic index, CC50/EC50) (DENV2 NGC) | further results |
| --- | --- | --- | --- | --- |
| CCC/C=C/C/C=C/CCCCCCCc1cccc(O)c1C(=O)O [Anacardic acid diene, 6-[8(Z), 11(Z)-pentadecadienyl]salicylic acid] | 112 ± 8.57 | – | – | EC50 (DENV2 NGC): Not inhibited |
| CCCCCC/C=C\CCCCCCCc1cccc(O)c1C(=O)O [Anacardic acid monoene, 6-[8(Z)-pentadecenyl]salicylic acid] | 74 ± 0.85 | 12.6 ± 0.84 | 5.88 | – |
| CCCCCCCCCCCCCCCc1cccc(O)c1C(=O)O [Anacardic acid saturated, 6-pentadecylsalicylic acid] | 66.3 ± 1.58 | 4.31 ± 1.17 | 15.39 | EC50 (hepatitis C virus (HCV)): 7.25 µM; CC50 (K562): 25.4 µM; CC50 (AGS): 41.6 µM |
| C=CC/C=C/C/C=C/CCCCCCCc1cccc(O)c1C(=O)O [Anacardic acid triene, 6-[8(Z), 11(Z), 14-pentadecatrienyl]salicylic acid] | 115 ± 14.1 | 7.48 ± 2.14 | 15.38 | – |
| CCCCCCCCCCCCCCCc1cccc(O)c1 [Cardanol saturated] | 43.5 ± 1.1 | 5.89 ± 2.83 | 7.39 | – |
| C=CC/C=C/C/C=C/CCCCCCCc1cccc(O)c1 [Cardanol triene, 3-[8(Z), 11(Z), 14-pentadecatrienyl]phenol] | – | – | – | solubility in DMSO (Solubility in DMSO): insoluble |
| CCCCCCCCCCCCCCCc1cc(O)cc(O)c1 [Cardol saturated] | 58.75 ± 0.43 | 12.7 ± 0.67 | 4.62 | – |
| NC(=O)c1ncn([C@@H]2O[C@H](CO)[C@@H](O)[C@H]2O)n1 [ribavirin, reference compound] | – | – | – | DENV2 RNA inhibition ([2]; 10 µM): 98.42 ± 0.68%; DENV2 RNA inhibition ([2]; 20 µM): 98.09 ± 0.72% |
